Source: patent publication US20250163104A1, “MACROCYCLIC IMMUNOMODULATORS” (priority 2021, published 2025)
Where a SMILES comes first, the peptide text is derived from it. Bridges are numbered along the chain shown (N, C = ends). [ ]: non-standard residue; d: D form. The star is where a group is joined. ξ: configuration not given here. Phe(4-COOH) = N[C@@H](Cc1ccc(C(=O)O)cc1)C(=O)O; Bip = N[C@@H](Cc1ccc(-c2ccccc2)cc1)C(=O)O; Phe(3-OMe) = COc1cccc(C[C@H](N)C(=O)O)c1; Phe(3-Me) = Cc1cccc(C[C@H](N)C(=O)O)c1; Val(3-OH) = CC(C)(O)[C@H](N)C(=O)O; 4Pal = N[C@@H](Cc1ccncc1)C(=O)O; Cha = N[C@@H](CC1CCCCC1)C(=O)O; dCha = N[C@H](CC1CCCCC1)C(=O)O; Thr(3ξ) = CC(O)[C@H](N)C(=O)O; Carboxymethyl = O=C(O)C*; Orn = NCCC[C@H](N)C(=O)O; Dab = NCC[C@H](N)C(=O)O; Dap = NC[C@H](N)C(=O)O; ξOrn = NCCCC(N)C(=O)O; NH(CH2)3NH2 = NCCCN*; Piv = CC(C)(C)C(=O)*

Target: T1, human PD-1 / PD-L1-Ig binding on Jurkat cell line over-expressing human PD-1 (Jurkat-PD-1) (Homo sapiens, UniProt Q15116)
T1 construct: expressed in transfected cells; host or cells: Jurkat
T1 sequence (Q15116 25-288): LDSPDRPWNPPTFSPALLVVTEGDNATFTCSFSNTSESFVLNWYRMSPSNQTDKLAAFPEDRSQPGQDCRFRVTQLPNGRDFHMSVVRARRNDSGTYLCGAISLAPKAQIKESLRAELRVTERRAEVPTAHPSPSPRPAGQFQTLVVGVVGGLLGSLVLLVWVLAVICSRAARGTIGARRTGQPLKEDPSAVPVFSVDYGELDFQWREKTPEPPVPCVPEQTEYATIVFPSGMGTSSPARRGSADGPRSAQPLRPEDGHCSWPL
Assay: Jurkat-PD-1 Cell Binding High-Content Screening Assay (CBA)
Type: cell-based
Conditions: Jurkat-PD-1 cells, PE-labeled PD-L1-Ig 20 nM final; read-out: Jurkat HPD1_PDL1 IC50
Outline: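 PE-PD-L1-Ig 20 nM final; cells in DMEM/10% FCS; cpd pre-incubation 2 h, 37° C; ligand 1 h; PFA fix + Hoechst 33342; high-content imaging read-out.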

Row | SMILES | IC50
1 | Cc1cccc(C[C@@H]2NC(=O)[C@H](CC(=O)O)NC(=O)[C@H](Cc3ccc(OCC(=O)O)cc3)NC(=O)[C@H](Cc3ccncc3)NC(=O)CSC[C@@H](C(=O)N[C@@H](CCN)C(N)=O)NC(=O)[C@H](CO)NC(=O)[C@H](C(C)(C)O)NC(=O)[C@H](CC3CCCCC3)NC(=O)[C@H](CCN)NC(=O)[C@@H](CC(C)C)NC(=O)C(C3CCNCC3)NC(=O)[C@H](Cc3ccc(OCC(=O)O)cc3)NC(=O)[C@H](Cc3ccc(-c4ccccc4)cc3)NC(=O)[C@H](Cc3ccc(OCC(=O)O)cc3)NC2=O)c1 (some centres unmarked) [Compound 2083] | 912 nM
2 | Cc1cccc(C[C@@H]2NC(=O)[C@H](CC(=O)O)NC(=O)[C@H](Cc3ccc(OCC(=O)O)cc3)NC(=O)[C@H](Cc3ccncc3)NC(=O)CSC[C@@H](C(=O)N[C@@H](CO)C(=O)NCCCN)NC(=O)[C@H](C(C)O)NC(=O)[C@H](C(C)(C)O)NC(=O)[C@H](CC3CCCCC3)NC(=O)[C@H](Cc3cnc[nH]3)NC(=O)[C@@H](CC(C)C)NC(=O)[C@H](CCCN)NC(=O)[C@H](Cc3ccc(OCC(=O)O)cc3)NC(=O)[C@H](Cc3ccc(-c4ccccc4)cc3)NC(=O)[C@H](Cc3ccc(OCC(=O)O)cc3)NC2=O)c1 (stereo partly drawn) [Compound 2647] ({CH2CO}-[4Pal]Y(Carboxymethyl)D[Phe(3-Me)]Y(Carboxymethyl)[Bip]Y(Carboxymethyl)[Orn][dL]H[Cha][Val(3-OH)][Thr(3ξ)]CS-{NH(CH2)3NH2}; thioether N-14) | 22.8 nM
3 | Cc1cccc(C[C@@H]2NC(=O)[C@H](CC(=O)O)NC(=O)[C@H](Cc3ccc(C(=O)O)cc3)NC(=O)[C@H](Cc3ccncc3)NC(=O)CSC[C@@H](C(=O)N[C@H](CC(N)=O)C(N)=O)NC(=O)[C@H](CO)NC(=O)[C@H](C(C)(C)O)NC(=O)[C@H](CC3CCCCC3)NC(=O)[C@H](CCN)NC(=O)[C@@H](CC(C)C)NC(=O)[C@H](CCCN)NC(=O)[C@H](Cc3ccc(C(=O)O)cc3)NC(=O)[C@H](Cc3ccc(-c4ccccc4)cc3)NC(=O)[C@H](Cc3ccc(OCC(=O)O)cc3)NC2=O)c1 [Compound 2655] ({CH2CO}-[4Pal][Phe(4-COOH)]D[Phe(3-Me)]Y(Carboxymethyl)[Bip][Phe(4-COOH)][Orn][dL][Dab][Cha][Val(3-OH)]SC[dN]-NH2; thioether N-14) | 110 nM
4 | COc1cccc(C[C@@H]2NC(=O)[C@H](CCN)NC(=O)[C@@H](CC(C)C)NC(=O)[C@H](CCCN)NC(=O)[C@H](CCC(=O)O)NC(=O)[C@H](Cc3ccc(-c4ccccc4)cc3)NC(=O)[C@H](C(C)C)NC(=O)[C@H](Cc3c[nH]c4ccccc34)NC(=O)[C@H](CC(=O)O)NC(=O)[C@H](Cc3ccc(OCC(=O)O)cc3)NC(=O)[C@H](CN)NC(=O)CSC[C@@H](C(=O)N[C@@H](C)C(N)=O)NC(=O)[C@H]([C@@H](C)O)NC(=O)[C@H](C(C)C)NC2=O)c1 [Compound 1469] ({CH2CO}-[Dap]Y(Carboxymethyl)DWV[Bip]E[Orn][dL][Dab][Phe(3-OMe)]VTCA-NH2; thioether N-14) | 29.6 nM
5 | CC(C)C[C@@H]1NC(=O)[C@H](Cc2c[nH]c3ccccc23)NC(=O)[C@H](CC(=O)O)NC(=O)[C@H](Cc2ccc(C(=O)O)cc2)NC(=O)[C@H](Cc2ccc(OCC(=O)O)cc2)NC(=O)CSC[C@@H](C(=O)NCC(N)=O)NC(=O)[C@H](CO)NC(=O)[C@H](C(C)C)NC(=O)[C@H](CC2CCCCC2)NC(=O)[C@H](CC(N)=O)NC(=O)[C@@H](CC(C)C)NC(=O)[C@H](CN)NC(=O)[C@H](C(C)C)NC(=O)[C@H](Cc2ccc(-c3ccccc3)cc2)NC1=O [Compound 1393] ({CH2CO}-Y(Carboxymethyl)[Phe(4-COOH)]DWL[Bip]V[Dap][dL]N[Cha]VSCG-NH2; thioether N-14) | 25.3 nM
6 | CC(C)C[C@@H]1NC(=O)[C@H](CCCCN)NC(=O)[C@@H](CC(C)C)NC(=O)[C@H](CCN)NC(=O)[C@H](Cc2cnc[nH]2)NC(=O)[C@H](Cc2ccc(-c3ccccc3)cc2)NC(=O)[C@H](C(C)C)NC(=O)[C@H](Cc2c[nH]c3ccccc23)NC(=O)[C@H](CC(=O)O)NC(=O)[C@H](Cc2ccc(O)cc2)NC(=O)[C@H](CC(N)=O)NC(=O)CSC[C@@H](C(=O)N[C@@H](C)C(N)=O)NC(=O)[C@H]([C@@H](C)O)NC(=O)[C@H](C(C)C)NC1=O [Compound 1137] ({CH2CO}-NYDWV[Bip]H[Dab][dL]KLVTCA-NH2; thioether N-14) | 47 nM
7 | CC(C)C[C@@H]1NC(=O)[C@H](Cc2c[nH]c3ccccc23)NC(=O)[C@H](CC(=O)O)NC(=O)[C@H](Cc2ccc(O)cc2)NC(=O)[C@H](Cc2ccccc2)NC(=O)CSC[C@@H](C(=O)N[C@@H](C)C(N)=O)NC(=O)[C@H](CO)NC(=O)[C@H](C(C)C)NC(=O)[C@H](CC(C)C)NC(=O)[C@H](CC(N)=O)NC(=O)[C@@H](C)NC(=O)[C@H](CCCN)NC(=O)[C@H](C(C)C)NC(=O)[C@H](Cc2ccc(-c3ccccc3)cc2)NC1=O [Compound 1108] ({CH2CO}-FYDWL[Bip]V[Orn][dA]NLVSCA-NH2; thioether N-14) | 42.5 nM

Further compounds by falling IC50, results first:

Row | IC50 | SMILES
8 | 22.8 nM | CC(C)[C@@H]1NC(=O)[C@H](Cc2c[nH]c3ccccc23)NC(=O)[C@H](CC(=O)O)NC(=O)[C@H](Cc2ccc(OCC(=O)O)cc2)NC(=O)[C@H](CN)NC(=O)CSC[C@@H](C(=O)N[C@@H](C)C(N)=O)NC(=O)[C@H]([C@@H](C)O)NC(=O)[C@H](C(C)C)NC(=O)[C@H](CC2CCCCC2)NC(=O)[C@H](CCN)NC(=O)[C@@H](Cc2ccccc2)NC(=O)[C@H](CCCN)NC(=O)[C@H](CCC(=O)O)NC(=O)[C@H](Cc2ccc(-c3ccccc3)cc2)NC1=O [Compound 1436] ({CH2CO}-[Dap]Y(Carboxymethyl)DWV[Bip]E[Orn][dF][Dab][Cha]VTCA-NH2; thioether N-14)
9 | 16.2 nM | Cc1cccc(C[C@@H]2NC(=O)[C@H](CC(=O)O)NC(=O)[C@H](Cc3ccc(OCC(=O)O)cc3)NC(=O)[C@H](CN)NC(=O)CSC[C@@H](C(=O)N[C@@H](CCN)C(N)=O)NC(=O)[C@H]([C@@H](C)O)NC(=O)[C@H](C(C)C)NC(=O)[C@H](CC3CCCCC3)NC(=O)[C@H](CCNC(=O)C(C)(C)C)NC(=O)[C@@H](CC(C)C)NC(=O)[C@H](CCN)NC(=O)[C@H](Cc3ccc(OCC(=O)O)cc3)NC(=O)[C@H](Cc3ccc(-c4ccccc4)cc3)NC(=O)[C@H](Cc3ccc(OCC(=O)O)cc3)NC2=O)c1 [Compound 2063] ({CH2CO}-[Dap]Y(Carboxymethyl)D[Phe(3-Me)]Y(Carboxymethyl)[Bip]Y(Carboxymethyl)[Dab][dL][Dab](Piv)[Cha]VTC[Dab]-NH2; thioether N-14)
10 | 9.7 nM | Cc1cccc(C[C@@H]2NC(=O)[C@H](CC(=O)O)NC(=O)[C@H](Cc3ccc(OCC(=O)O)cc3)NC(=O)[C@H](CN)NC(=O)CSC[C@@H](C(=O)N[C@@H](CCN)C(N)=O)NC(=O)[C@H](CCNC(=O)C(C)(C)C)NC(=O)[C@H](C(C)C)NC(=O)[C@H](CC3CCCCC3)NC(=O)[C@H](CCN)NC(=O)[C@@H](CC(C)C)NC(=O)[C@H](CCCN)NC(=O)[C@H](Cc3ccc(O)cc3)NC(=O)[C@H](Cc3ccc(-c4ccccc4)cc3)NC(=O)[C@H](Cc3ccc(O)cc3)NC2=O)c1 [Compound 2044] ({CH2CO}-[Dap]Y(Carboxymethyl)D[Phe(3-Me)]Y[Bip]Y[Orn][dL][Dab][Cha]V[Dab](Piv)C[Dab]-NH2; thioether N-14)
11 | 7.7 nM | Cc1cccc(C[C@@H]2NC(=O)[C@H](CC(=O)O)NC(=O)[C@H](Cc3ccncc3)NC(=O)[C@H](Cc3ccc(OCC(=O)O)cc3)NC(=O)CSC[C@@H](C(=O)NCC(N)=O)NC(=O)[C@H](CO)NC(=O)[C@H](C(C)C)NC(=O)[C@H](CC(C)C)NC(=O)[C@H](CCN)NC(=O)[C@@H](CC(C)C)NC(=O)[C@H](CCCN)NC(=O)[C@H](C(C)C)NC(=O)[C@H](Cc3ccc(-c4ccccc4)cc3)NC(=O)[C@H](CC(C)C)NC2=O)c1 [Compound 1265] ({CH2CO}-Y(Carboxymethyl)[4Pal]D[Phe(3-Me)]L[Bip]V[Orn][dL][Dab]LVSCG-NH2; thioether N-14)
12 | 5.5 nM | CC(C)[C@@H]1NC(=O)[C@H](Cc2c[nH]c3ccccc23)NC(=O)[C@H](CC(=O)O)NC(=O)[C@H](Cc2ccc(C(=O)O)cc2)NC(=O)[C@H](Cc2ccncc2)NC(=O)CSC[C@@H](C(=O)N[C@@H](C)C(N)=O)NC(=O)[C@H]([C@@H](C)O)NC(=O)[C@H](C(C)C)NC(=O)[C@H](CC2CCCCC2)NC(=O)[C@H](CCN)NC(=O)[C@@H](CC2CCCCC2)NC(=O)[C@H](CCCN)NC(=O)[C@H](CCC(=O)O)NC(=O)[C@H](Cc2ccc(-c3ccccc3)cc2)NC1=O [Compound 1439] ({CH2CO}-[4Pal][Phe(4-COOH)]DWV[Bip]E[Orn][dCha][Dab][Cha]VTCA-NH2; thioether N-14)
13 | 4.9 nM | Cc1cccc(C[C@@H]2NC(=O)[C@H](CC(=O)O)NC(=O)[C@H](Cc3ccc(OCC(=O)O)cc3)NC(=O)[C@H](CN)NC(=O)CSC[C@@H](C(=O)N[C@@H](CCN)C(N)=O)NC(=O)C(CCCN)NC(=O)[C@H](C(C)C)NC(=O)[C@H](CC3CCCCC3)NC(=O)[C@H](CCN)NC(=O)[C@@H](CC(C)C)NC(=O)[C@H](CCCN)NC(=O)[C@H](Cc3ccc(O)cc3)NC(=O)[C@H](Cc3ccc(-c4ccccc4)cc3)NC(=O)[C@H](Cc3ccc(O)cc3)NC2=O)c1 (stereo partly drawn) [Compound 2256] ({CH2CO}-[Dap]Y(Carboxymethyl)D[Phe(3-Me)]Y[Bip]Y[Orn][dL][Dab][Cha]V[ξOrn]C[Dab]-NH2; thioether N-14)
14 | 3.4 nM | Cc1cccc(C[C@@H]2NC(=O)[C@H](CC(=O)O)NC(=O)[C@H](Cc3ccc(C(=O)O)cc3)NC(=O)[C@H](C(C)O)NC(=O)CSC[C@@H](C(=O)N[C@@H](CCN)C(N)=O)NC(=O)[C@H](CO)NC(=O)[C@H](C(C)(C)O)NC(=O)[C@H](CC3CCCCC3)NC(=O)[C@H](CCN)NC(=O)[C@@H](CC(C)C)NC(=O)[C@H](CCCN)NC(=O)[C@H](Cc3ccc(C(=O)O)cc3)NC(=O)[C@H](Cc3ccc(-c4ccccc4)cc3)NC(=O)[C@H](Cc3ccc(C(=O)O)cc3)NC2=O)c1 (stereo partly drawn) [Compound 2665] ({CH2CO}-[Thr(3ξ)][Phe(4-COOH)]D[Phe(3-Me)][Phe(4-COOH)][Bip][Phe(4-COOH)][Orn][dL][Dab][Cha][Val(3-OH)]SC[Dab]-NH2; thioether N-14)
